Tests used:
NCI/ADR-RES = assay: Growth inhibition of the NCI/ADR-RES Breast cancer cell line for 2-day in vitro assay.; format: functional; conditions: Homo sapiens, 48 h
OVCAR-8 = assay: Growth inhibition of the OVCAR-8 Ovarian cancer cell line for 2-day in vitro assay.; format: functional; conditions: Homo sapiens, OVCAR-8, 48 h
UACC-257 = assay: Growth inhibition of the UACC-257 Melanoma cancer cell line for 2-day in vitro assay.; format: functional; conditions: Homo sapiens, UACC-257, 48 h
UACC-62 = assay: Growth inhibition of the UACC-62 Melanoma cancer cell line for 2-day in vitro assay.; format: functional; conditions: Homo sapiens, UACC-62, 48 h
PC-3 = assay: Growth inhibition of the PC-3 Prostate cancer cell line for 2-day in vitro assay.; format: functional; conditions: Homo sapiens, PC-3, 48 h
ACHN = assay: Growth inhibition of the ACHN Renal cancer cell line for 2-day in vitro assay.; format: functional; conditions: Homo sapiens, 48 h
HT-29 = assay: Growth inhibition of the HT-29 colon cancer cell line for 2-day in vitro assay.; format: functional; conditions: Homo sapiens, HT-29, 48 h
HOP-92 = assay: Growth inhibition of the HOP-92 non-small cell lung cancer cell line for 2-day in vitro assay.; format: functional; conditions: Homo sapiens, HOP-92, 48 h
A549 = assay: Growth inhibition of the A549/ATCC non-small cell lung cancer cell line for 2-day in vitro assay.; format: functional; conditions: Homo sapiens, A549, 48 h
DU-145 = assay: Growth inhibition of the DU-145 Prostate cancer cell line for 2-day in vitro assay.; format: functional; conditions: Homo sapiens, DU-145, 48 h
EKVX = assay: Growth inhibition of the EKVX non-small cell lung cancer cell line for 2-day in vitro assay.; format: functional; conditions: Homo sapiens, 48 h
HCT-15 = assay: Growth inhibition of the HCT-15 colon cancer cell line for 2-day in vitro assay.; format: functional; conditions: Homo sapiens, HCT-15, 48 h
KM12 = assay: Growth inhibition of the KM12 colon cancer cell line for 2-day in vitro assay.; format: functional; conditions: Homo sapiens, KM12, 48 h
OVCAR-3 = assay: Growth inhibition of the OVCAR-3 Ovarian cancer cell line for 2-day in vitro assay.; format: functional; conditions: Homo sapiens, OVCAR-3, 48 h
SK-OV-3 = assay: Growth inhibition of the SK-OV-3 Ovarian cancer cell line for 2-day in vitro assay.; format: functional; conditions: Homo sapiens, SK-OV-3, 48 h
HCT-116 = assay: Growth inhibition of the HCT116 colon cancer cell line for 2-day in vitro assay.; format: functional; conditions: Homo sapiens, HCT-116, 48 h
HCC 2998 = assay: Growth inhibition of the HCC2998 colon cancer cell line for 2-day in vitro assay.; format: functional; conditions: Homo sapiens, HCC 2998, 48 h
SNB-75 = assay: Growth inhibition of the SNB-75 CNS cancer cell line for 2-day in vitro assay.; format: functional; conditions: Homo sapiens, SNB-75, 48 h
Malme-3M = assay: Growth inhibition of the MALME-3M Melanoma cancer cell line for 2-day in vitro assay.; format: functional; conditions: Homo sapiens, 48 h
SW-620 = assay: Growth inhibition of the SW-620 colon cancer cell line for 2-day in vitro assay.; format: functional; conditions: Homo sapiens, SW-620, 48 h
M14 = assay: Growth inhibition of the M14 Melanoma cancer cell line for 2-day in vitro assay.; format: functional; conditions: Homo sapiens, M14, 48 h
NCI-H322M = assay: Growth inhibition of the NCI-H322M non-small cell lung cancer cell line for 2-day in vitro assay.; format: functional; conditions: Homo sapiens, 48 h
OVCAR-5 = assay: Growth inhibition of the OVCAR-5 Ovarian cancer cell line for 2-day in vitro assay.; format: functional; conditions: Homo sapiens, OVCAR-5, 48 h
NCI-H460 = assay: Growth inhibition of the NCI-H460 non-small cell lung cancer cell line for 2-day in vitro assay.; format: functional; conditions: Homo sapiens, NCI-H460, 48 h
Hs-578T = assay: Growth inhibition of the Hs 578.T Breast cancer cell line for 2-day in vitro assay.; format: functional; conditions: Homo sapiens, 48 h
A498 = assay: Growth inhibition of the A498 Renal cancer cell line for 2-day in vitro assay.; format: functional; conditions: Homo sapiens, A498, 48 h
SK-MEL-5 = assay: Growth inhibition of the SK-MEL-5 Melanoma cancer cell line for 2-day in vitro assay.; format: functional; conditions: Homo sapiens, SK-MEL-5, 48 h
UO-31 = assay: Growth inhibition of the UO-31 Renal cancer cell line for 2-day in vitro assay.; format: functional; conditions: Homo sapiens, UO-31, 48 h
SNB-19 = assay: Growth inhibition of the SNB19 CNS cancer cell line for 2-day in vitro assay.; format: functional; conditions: Homo sapiens, SNB-19, 48 h
786-0 = assay: Growth inhibition of the 786-O Renal cancer cell line for 2-day in vitro assay.; format: functional; conditions: Homo sapiens, 786-0, 48 h
SF-268 = assay: Growth inhibition of the SF-268 CNS cancer cell line for 2-day in vitro assay.; format: functional; conditions: Homo sapiens, SF-268, 48 h
K562 = assay: Growth inhibition of the K-562 leukemia cell line for 2-day in vitro assay.; format: functional; conditions: Homo sapiens, K562, 48 h
T47D = assay: Growth inhibition of the T-47D Breast cancer cell line for 2-day in vitro assay.; format: functional; conditions: Homo sapiens, 48 h
MDA-MB-435 = assay: Growth inhibition of the […] Breast cancer cell line for 2-day in vitro assay.; format: functional; conditions: Homo sapiens, MDA-MB-435, 48 h
SF-295 = assay: Growth inhibition of the SF-295 CNS cancer cell line for 2-day in vitro assay.; format: functional; conditions: Homo sapiens, SF-295, 48 h
BT-549 = assay: Growth inhibition of the BT-549 Breast cancer cell line for 2-day in vitro assay.; format: functional; conditions: Homo sapiens, BT-549, 48 h
COLO 205 = assay: Growth inhibition of the COLO-205 colon cancer cell line for 2-day in vitro assay.; format: functional; conditions: Homo sapiens, COLO 205, 48 h
HOP-62 = assay: Growth inhibition of the HOP-62 non-small cell lung cancer cell line for 2-day in vitro assay.; format: functional; conditions: Homo sapiens, HOP-62, 48 h
U-251 = assay: Growth inhibition of the U251 CNS cancer cell line for 2-day in vitro assay.; format: functional; conditions: Homo sapiens, U-251, 48 h
MCF7 [1] = assay: Growth inhibition of the MCF-7 Breast cancer cell line for 2-day in vitro assay.; format: functional; conditions: Homo sapiens, MCF7, 48 h
SN12C = assay: Growth inhibition of the SN12C Renal cancer cell line for 2-day in vitro assay.; format: functional; conditions: Homo sapiens, 48 h
NCI-H23 = assay: Growth inhibition of the NCI-H23 non-small cell lung cancer cell line for 2-day in vitro assay.; format: functional; conditions: Homo sapiens, NCI-H23, 48 h
CCRF-CEM = assay: Growth inhibition of the CCRF-CEM leukemia cell line for 2-day in vitro assay.; format: functional; conditions: Homo sapiens, 48 h
SR = assay: Growth inhibition of the SR leukemia cell line for 2-day in vitro assay.; format: functional; conditions: Homo sapiens, 48 h
NCI-H522 = assay: Growth inhibition of the NCI-H522 non-small cell lung cancer cell line for 2-day in vitro assay.; format: functional; conditions: Homo sapiens, NCI-H522, 48 h
SK-MEL-2 = assay: Growth inhibition of the SK-MEL-2 Melanoma cancer cell line for 2-day in vitro assay.; format: functional; conditions: Homo sapiens, SK-MEL-2, 48 h
MOLT-4 = assay: Growth inhibition of the MOLT-4 leukemia cell line for 2-day in vitro assay.; format: functional; conditions: Homo sapiens, MOLT-4, 48 h
LOX IMVI = assay: Growth inhibition of the LOX IMVI Melanoma cancer cell line for 2-day in vitro assay.; format: functional; conditions: Homo sapiens, 48 h
TK-10 = assay: Growth inhibition of the TK-10 Renal cancer cell line for 2-day in vitro assay.; format: functional; conditions: Homo sapiens, TK-10, 48 h
MCF7 [2] = assay: In vitro cytotoxicity against MCF-7 human mammary carcinoma cells; format: functional, cell-based
RXF 393 = assay: Growth inhibition of the RXF-393 Renal cancer cell line for 2-day in vitro assay.; format: functional; conditions: Homo sapiens, RXF 393, 48 h
MDA-MB-231 = assay: Growth inhibition of the […] Breast cancer cell line for 2-day in vitro assay.; format: functional; conditions: Homo sapiens, MDA-MB-231, 48 h
SK-MEL-28 = assay: Growth inhibition of the SK-MEL-28 Melanoma cancer cell line for 2-day in vitro assay.; format: functional; conditions: Homo sapiens, SK-MEL-28, 48 h
OVCAR-4 = assay: Growth inhibition of the OVCAR-4 Ovarian cancer cell line for 2-day in vitro assay.; format: functional; conditions: Homo sapiens, OVCAR-4, 48 h
NCI-H226 = assay: Growth inhibition of the NCI-H226 non-small cell lung cancer cell line for 2-day in vitro assay.; format: functional; conditions: Homo sapiens, NCI-H226, 48 h

Cc1cc(-c2nc3ccc(O)cc3s2)ccc1N
GI50 (NCI/ADR-RES): 91.2 µM
GI50 (OVCAR-8): > 100 µM
GI50 (UACC-257): > 100 µM
GI50 (UACC-62): 57.5 µM
GI50 (PC-3): 50.1 µM
GI50 (ACHN): 53.7 µM
GI50 (HT-29): 37.2 µM
GI50 (HOP-92): > 100 µM
GI50 (A549): 34.7 µM
GI50 (DU-145): 33.9 µM
GI50 (EKVX): 4.07 µM
GI50 (HCT-15): > 100 µM
GI50 (KM12): 57.5 µM
GI50 (OVCAR-3): 38.9 µM
GI50 (SK-OV-3): 37.2 µM
GI50 (HCT-116): 43.7 µM
GI50 (HCC 2998): > 100 µM
GI50 (SNB-75): 15.8 µM
GI50 (Malme-3M): 83.2 µM
GI50 (SW-620): 66.1 µM
GI50 (M14): 33.1 µM
GI50 (NCI-H322M): 39.8 µM
GI50 (OVCAR-5): 83.2 µM
GI50 (NCI-H460): 38.9 µM
GI50 (Hs-578T): 95.5 µM
GI50 (A498): 41.7 µM
GI50 (SK-MEL-5): 52.5 µM
GI50 (UO-31): 21.4 µM
GI50 (SNB-19): 45.7 µM
GI50 (786-0): 29.5 µM
GI50 (SF-268): 35.5 µM
GI50 (K562): 36.3 µM
GI50 (T47D): 22.4 µM
GI50 (MDA-MB-435): 89.1 µM
GI50 (SF-295): 31.6 µM
GI50 (BT-549): 14.1 µM
GI50 (COLO 205): > 100 µM
GI50 (HOP-62): 30.9 µM
GI50 (U-251): 31.6 µM
GI50 (MCF7 [1]): 56.2 µM
GI50 (SN12C): 38.9 µM
GI50 (NCI-H23): 12.6 µM
GI50 (CCRF-CEM): 0.794 µM
GI50 (SR): 21.9 µM
GI50 (NCI-H522): 30.2 µM
GI50 (SK-MEL-2): > 100 µM
GI50 (MOLT-4): 26.9 µM
GI50 (LOX IMVI): > 100 µM
GI50 (TK-10): 77.6 µM
IC50 (MCF7 [2]): < 0.001 µM
GI50 (RXF 393): 30.2 µM
GI50 (MDA-MB-231): 44.7 µM
GI50 (SK-MEL-28): 64.6 µM
GI50 (OVCAR-4): 37.2 µM
GI50 (NCI-H226): 60.3 µM

CC(=O)Nc1ccc(-c2nc3cc(O)ccc3s2)cc1Cl
IC50 (MCF7 [2]): 31 µM

Nc1ccc(-c2nc3ccc(O)cc3s2)cc1Cl
IC50 (MCF7 [2]): 54.5 µM

CC(=O)Nc1ccc(-c2nc3cccc(O)c3s2)cc1C
IC50 (MCF7 [2]): 48.2 µM

Nc1ccc(-c2nc3c(O)cccc3s2)cc1
IC50 (MCF7 [2]): > 100 µM

CC(=O)Nc1ccc(-c2nc3ccc(O)cc3s2)cc1C
IC50 (MCF7 [2]): 46.1 µM

CC(=O)ON(C(C)=O)c1ccc(-c2nc3ccccc3s2)cc1C
IC50 (MCF7 [2]): 0.055 µM

CC(=O)Nc1ccc(-c2nc3ccccc3s2)cc1O
IC50 (MCF7 [2]): 9 µM

CC(=O)Nc1ccc(-c2nc3cc(O)ccc3s2)cc1C
IC50 (MCF7 [2]): 72.5 µM

CC(=O)Nc1ccc(-c2nc3c(O)cccc3s2)cc1Cl
IC50 (MCF7 [2]): 56.8 µM

Cc1cc(-c2nc3c(O)cccc3s2)ccc1N
IC50 (MCF7 [2]): > 100 µM

Nc1ccc(-c2nc3ccccc3s2)cc1
IC50 (MCF7 [2]): < 0.001 µM
